# Measured values as given in ChEMBL document CHEMBL5042482, “Novel Allosteric Inhibitors of Deoxyhypusine Synthase against Malignant Melanoma: Design, Synthesis, and Biological Evaluation” (J Med Chem, 2021).
# What was measured:
# [1] = molecular target: T1, Deoxyhypusine synthase (Homo sapiens, UniProt P49366); assay: Inhibition of DHPS (unknown origin ) incubated for 30 mins by NAD/NADH-Glow assay
# T1 sequence (P49366 whole entry): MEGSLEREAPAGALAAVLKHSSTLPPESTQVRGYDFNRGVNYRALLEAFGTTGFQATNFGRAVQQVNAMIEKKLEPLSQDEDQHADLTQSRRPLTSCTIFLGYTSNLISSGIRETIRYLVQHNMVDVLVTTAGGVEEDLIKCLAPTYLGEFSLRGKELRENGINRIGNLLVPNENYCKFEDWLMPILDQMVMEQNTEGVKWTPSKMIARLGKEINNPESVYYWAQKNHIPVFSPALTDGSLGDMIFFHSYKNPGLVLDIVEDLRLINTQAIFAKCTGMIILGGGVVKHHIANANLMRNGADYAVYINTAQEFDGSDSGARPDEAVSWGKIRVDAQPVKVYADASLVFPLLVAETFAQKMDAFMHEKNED
# [2] = system: SK-MEL-28; assay: Cytotoxicity against human SK-MEL-28 cells assessed as reduction in cell viability incubated for 24 hrs by CCK-8 assay; format: functional, cell-based; conditions: SK-MEL-28, 24 h
# [3] = system: A-375; assay: Cytotoxicity against human A-375 cells assessed as reduction in cell viability incubated for 24 hrs by CCK-8 assay; format: functional, cell-based; conditions: A-375, 24 h
# [4] = system: B16; assay: Cytotoxicity against mouse B16 cells assessed as reduction in cell viability incubated for 24 hrs by CCK-8 assay; format: functional, cell-based; conditions: B16, 24 h
# [5] = (§1) Cytotoxicity against human HaCaT cells assessed as reduction in cell viability incubated for 24 hrs by CCK-8 assay; format: toxicity, cell-based; conditions: HaCaT cells
# [6] = system: HaCaT; assay: as §1; format: toxicity, cell-based; conditions: hacat, 24 h
# [7] = Toxicity in Sprague-Dawley rat assessed as effect on serum AST level at 160 mg/kg, ip (reference value: 69.70 to 332.90 U/L); format: organism-based; conditions: in vivo
# [8] = AUC (0 to t) in Sprague-Dawley rat at 160 mg/kg, ip by UHPLC-MS analysis; format: ADME, organism-based; design: dose 160 mg/kg; conditions: in vivo
# [9] = Toxicity in Sprague-Dawley rat assessed as effect on serum ALT level at 160 mg/kg, ip (reference value: 33.70 to 98.70 U/L); format: organism-based; conditions: in vivo
# [10] = Aqueous solubility of compound; format: physicochemical; conditions: buffer
# [11] = Volume of distribution in Sprague-Dawley rat at 160 mg/kg, ip by UHPLC-MS analysis; format: ADME, organism-based; conditions: in vivo
# [12] = AUC (0 to infinity) in Sprague-Dawley rat at 160 mg/kg, ip by UHPLC-MS analysis; format: ADME, organism-based; design: route intraperitoneal, time infinity, dose 160 mg/kg; conditions: in vivo
# [13] = system: A-375; assay: Anticancer activity against human A-375 cells xenografted in BALB/c mouse assessed as tumor growth inhibition at 80 mg/kg, ip treated every 3 days measured after 3 weeks relative to control; format: functional; conditions: A-375, ip, 504 h, read-out: TGI
# [14] = Acute toxicity in zebra fish assessed as lethal concentration measured for 96 hrs; design: species or system Danio rerio; conditions: zebrafish
# [15] = Clearance in Sprague-Dawley rat at 160 mg/kg, ip by UHPLC-MS analysis; format: ADME, organism-based; conditions: in vivo
# [16] = Half life in Sprague-Dawley rat at 160 mg/kg, ip by UHPLC-MS analysis; format: ADME, organism-based; conditions: in vivo
# [17] = Toxicity in Sprague-Dawley rat assessed as effect on serum CRE level at 160 mg/kg, ip (19.43 to 64.97 micromol/L); format: organism-based; conditions: in vivo
# [18] = Effect on intracellular ROS content in human HaCaT cells by DCFH-DA staining-based method; format: toxicity, cell-based
# [19] = Toxicity in Sprague-Dawley rat assessed as effect on serum Glu level at 160 mg/kg, ip (reference value: 2.65 to 7.65 mmol/L); format: organism-based; conditions: in vivo
Compound,IC50 [1] [µM],IC50 [2] [µM],IC50 [3] [µM],IC50 [4] [µM],CC50 at 24 h [5] [µM],further results
COc1ccccc1Oc1c(N)nc(-c2ccccc2)nc1OCCO,53.7,> 80,> 80,31.1,–,–
COc1ccccc1Oc1c(N)nc(Cc2ccccc2)nc1Cl,0.05,8.65,15.7,39.1,30.6,–
COc1ccccc1Oc1c(N)nc(-c2cccc(C)c2)nc1Cl,33.7,54,65.3,13.1,11.2,–
COc1ccccc1Oc1c(N)nc(-c2ccccc2F)nc1OCCO,5.43,–,> 80,11.8,39.5,–
COc1ccccc1Oc1c(N)nc(-c2ccc(I)cc2)nc1OCCO,2.29,–,–,19.6,–,–
COc1ccccc1Oc1c(N)nc(-c2cccc(F)c2)nc1OCCO,0.33,3.21,8.53,20.9,–,–
COc1ccccc1Oc1c(N)nc(-c2cccc(Br)c2)nc1Cl,35.8,–,–,24.6,16.1,–
COc1ccccc1Oc1c(N)nc(-c2ccc(C)cc2)nc1Cl,59.1,–,> 80,17.4,6.3,–
COc1ccccc1Oc1c(N)nc(-c2ccc(F)cc2)nc1OCCO,2.38,20.1,15.9,30.1,15.1,–
COc1ccccc1Oc1c(N)nc(-c2ccc(Cl)cc2)nc1Cl,0.1,0.12,1.03,18.8,–,–
COc1ccccc1Oc1c(N)nc(-c2ccc(Cl)cc2)nc1OCCO,38.1,> 80,> 80,7.74,–,–
COc1ccccc1Oc1c(N)nc(-c2cccc(Cl)c2)nc1Cl,20,19.4,38.3,17.9,> 80,–
COc1ccccc1Oc1c(N)nc(-c2cccc(Cl)c2)nc1OCCO,4.42,4.17,30.2,5.01,–,–
COc1ccccc1Oc1c(N)nc(-c2ccc(C)cc2)nc1OCCO,0.18,6.19,2.38,8.43,56.6,–
COc1ccccc1Oc1c(N)nc(-c2cccc(Br)c2)nc1OCCO,4.31,4.04,0.65,21.9,–,–
COc1ccccc1Oc1c(N)nc(Cc2ccccc2)nc1OCCO,0.32,14,0.2,47.4,–,–

Compound,IC50 [1] [µM],IC50 [2] [µM],IC50 [3] [µM],IC50 [4] [µM],CC50 at 24 h [5] [µM],further results
COc1ccccc1Oc1c(N)nc(-c2cccc(I)c2)nc1Cl,38.7,4.66,2.2,27.6,–,–
COc1cccc(-c2nc(N)c(Oc3ccccc3OC)c(OCCO)n2)c1,80,–,–,30.4,12.7,–
COc1ccc(-c2nc(N)c(Oc3ccccc3OC)c(Cl)n2)cc1,18.2,–,> 80,47.8,8.2,–
COc1ccccc1Oc1c(N)nc(-c2cccc(C)c2)nc1OCCO,1.17,14.7,1.38,70.9,–,–
COc1ccccc1Oc1c(N)nc(-c2ccccc2)nc1Cl,0.53,3.14,7.22,4.61,–,CC50 [6]: Not Active
COc1ccccc1Oc1c(N)nc(-c2cccc(F)c2)nc1Cl,–,–,–,21.7,17,–
COc1ccccc1Oc1c(N)nc(-c2ccccc2F)nc1Cl,12.9,–,> 80,13.8,> 80,–
COc1ccccc1Oc1c(N)nc(-c2cccc(I)c2)nc1OCCO,0.56,11.2,1.23,20.3,–,–
COc1ccccc1Oc1c(N)nc(-c2ccc(Br)cc2)nc1Cl,0.014,0.014,0.063,4.44,58.6,Activity [7]: 113.1 U/L; AUC(0-t) [8]: 2400 ng·h/mL; Activity [9]: 80.47 U/L; logS0 [10]: -4.416; Vd [11]: 228.602 L/kg; AUC(0-inf) [12]: 5660 ng·h/mL; inhibition in vivo at 80 mg/kg [13]: 50.3%; LC50 at 96 h [14]: 3750 µg/mL; CL/F [15]: 743 mL/min/kg; half-life [16]: 220 min; Activity [17]: 24.375 µmol/L; Activity [18]: Non-Toxic; Activity [19]: 4.345 mmol/L
COc1ccccc1Oc1c(N)nc(-c2ccc(F)cc2)nc1Cl,0.64,31.9,28.2,2.99,42.6,–
COc1ccccc1Oc1c(N)nc(-c2ccc(I)cc2)nc1Cl,0.18,1.25,0.48,5.4,–,–
COc1ccccc1Oc1c(NS(=O)(=O)c2ccc(C(C)(C)C)cc2)nc(-c2ncccn2)nc1OCCO [BOSENTAN],60.8,53.6,67.4,> 80,–,–
COc1ccccc1Oc1c(N)nc(-c2ccc(Br)cc2)nc1OCCO,11.8,4.4,10.3,11.8,–,–
COc1ccc(-c2nc(N)c(Oc3ccccc3OC)c(OCCO)n2)cc1,–,–,–,18.1,–,–
N=C(N)NCCCCCCCN,1.72,0.79,1.48,5.25,3.96,–
COc1cccc(-c2nc(N)c(Oc3ccccc3OC)c(Cl)n2)c1,0.04,–,24.6,23.6,14,–
